Here are results for 19 compounds from ChEMBL document CHEMBL4052769, “Synthesis and biological evaluation of novel 1,2,3-triazole derivatives as anti-tubercular agents” (Bioorg Med Chem Lett, 2017).

Data set [1] concerns Mycobacterium tuberculosis. Description: Antitubercular activity against Mycobacterium tuberculosis H37Ra ATCC 25177 after 4 weeks by Agar-based proportion Assay. Type of data set: functional. The note with it: H37Ra ATCC 25177, 672 h.
Data set [2] in a line: Selectivity index, ratio of CC50 for Swiss mouse BMDM to MIC for Mycobacterium tuberculosis H37Ra ATCC 25177.
A short description of data set [3]: Cytotoxicity against Swiss mouse BMDM assessed as reduction in cell viability after 24 hrs by MTS assay. Type of data set: cell-based. The note with it: bone marrow-derived macrophages (BMDM). For orientation: Formazan colour is commonly taken as a measure of viable cells.

Converted amounts (≈) assume the structure as drawn. Where only a bound is given, the exact number is not on record here.

The term MIC denotes the lowest concentration that inhibits growth of the organism. Lower therefore signals a more susceptible organism. Compound `N#Cc1ccc(-n2cc(COc3ccc(-c4ccccc4)cc3)nn2)cc1` came in with a minimum inhibitory concentration (MIC) in data set [1] of over 25 µg/mL.
`Fc1ccc(-n2cc(COc3ccc(-c4ccccc4)cc3)nn2)cc1` showed an MIC in data set [1] of over 25 µg/mL.
Usually CC50 stands for the concentration at which the toxic effect on the cells reaches its halfway point. Turning to `Fc1ccccc1-n1cc(COc2ccc(-c3ccccc3)cc2)nn1`, the MIC in data set [1] came to 0.78 µg/mL (≈ 2.26 µM). Also, in data set [2], the Selectivity Index came out at 128. Further, the CC50 at 24 h in data set [3] was 100 µg/mL (≈ 290 µM).
Compound `c1ccc(Cn2cc(COc3ccc(-c4ccccc4)cc3)nn2)cc1` came in with an MIC in data set [1] of over 25 µg/mL.
In data set [1], `CC[C@@H](CO)NCCN[C@@H](CC)CO` [ETHAMBUTOL] returned an MIC of 2 µg/mL (≈ 9.79 µM). The Selectivity Index in data set [2] turned out to be 50. In data set [3], the CC50 at 24 h stood at 100 µg/mL (≈ 489 µM).
In the case of `O=[N+]([O-])c1ccc(-n2cc(COc3ccc(-c4ccccc4)cc3)nn2)cc1`, the MIC in data set [1] is over 25 µg/mL.
Same read-out and setting: with `CCCCCCCCn1cc(COc2ccc(-c3ccccc3)cc2)nn1` the figure was over 25 µg/mL.
In data set [1], `Fc1ccc(-n2cc(COc3ccc(-c4ccccc4)cc3)nn2)cc1Cl` returned an MIC of 1.56 µg/mL (≈ 4.11 µM). In addition, the Selectivity Index in data set [2] stood at 64.1. Also, the CC50 at 24 h in data set [3] was 100 µg/mL (≈ 263 µM).
For `CC(=O)OCCn1cc(COc2ccc(-c3ccccc3)cc2)nn1` the same measures were 1.56 µg/mL (≈ 4.62 µM), 64.1 and 100 µg/mL (≈ 296 µM).
The compound `Fc1ccc(-n2cc(COc3ccc(-c4ccccc4)cc3)nn2)cc1F` came in with a minimum inhibitory concentration (MIC) in data set [1] of 3.12 µg/mL (≈ 8.59 µM). Further, the Selectivity Index in data set [2] is 32. Besides, the half-maximal cytotoxic concentration (CC50) at 24 h in data set [3] came out at 100 µg/mL (≈ 275 µM).
For `Clc1ccc(-n2cc(COc3ccc(-c4ccccc4)cc3)nn2)cc1`, the MIC in data set [1] was over 25 µg/mL.
In data set [1], `O=[N+]([O-])c1ccc(Cn2cc(COc3ccc(-c4ccccc4)cc3)nn2)cc1` showed a minimal inhibitory concentration (MIC) of over 25 µg/mL.
With `c1ccc(-c2ccc(OCc3cn(-c4ccccc4)nn3)cc2)cc1`, the MIC in data set [1] was over 25 µg/mL.
For the compound `FC(F)Oc1ccc(-n2cc(COc3ccc(-c4ccccc4)cc3)nn2)cc1`, the MIC in data set [1] is 1.56 µg/mL (≈ 3.97 µM). The CC50 at 24 h in data set [3] is 100 µg/mL (≈ 254 µM).
In the case of `NNC(=O)c1ccncc1` [ISONIAZID], inhibition of growth in data set [1] (MIC) required 0.025 µg/mL (≈ 0.182 µM). In addition, in data set [2], the Selectivity Index was 4000. The CC50 at 24 h in data set [3] amounted to 100 µg/mL (≈ 729 µM).
The compound `COc1ccc(-n2cc(COc3ccc(-c4ccccc4)cc3)nn2)cc1` displayed an MIC in data set [1] of over 25 µg/mL.
`Brc1ccc(-n2cc(COc3ccc(-c4ccccc4)cc3)nn2)cc1` registered an MIC in data set [1] of over 25 µg/mL.
In data set [1], `FC(F)(F)c1ccc(-n2cc(COc3ccc(-c4ccccc4)cc3)nn2)cc1` came in with an MIC of 3.12 µg/mL (≈ 7.89 µM). The Selectivity Index in data set [2] stood at 32. The cytotoxic concentration (CC50) at 24 h in data set [3] was 100 µg/mL (≈ 253 µM).
`c1ccc(CCn2cc(COc3ccc(-c4ccccc4)cc3)nn2)cc1`: the MIC in data set [1] is over 25 µg/mL.
